Experimental data from publication PMC2836797 (FEBS letters, 2010).

Assays:
Type in all cases: biochemical
[1] = target: ND2 subunit of NADH:ubiquinone oxidoreductase (complex I) (Bos taurus, UniProt P03892)
[2] = target: ND1 subunit of NADH:ubiquinone oxidoreductase (complex I) (Bos taurus, UniProt P03887); assay: photoaffinity labeling of SMP with [3H]BPA, BN-PAGE/dSDS-PAGE radioactivity
[3] = target: ND5 subunit of NADH:ubiquinone oxidoreductase (complex I) (Bos taurus, UniProt P03920); conditions: read-out: -6M urea
Sequence of ND5 subunit of NADH:ubiquinone oxidoreductase (complex I) (P03920 whole entry, one chain of several): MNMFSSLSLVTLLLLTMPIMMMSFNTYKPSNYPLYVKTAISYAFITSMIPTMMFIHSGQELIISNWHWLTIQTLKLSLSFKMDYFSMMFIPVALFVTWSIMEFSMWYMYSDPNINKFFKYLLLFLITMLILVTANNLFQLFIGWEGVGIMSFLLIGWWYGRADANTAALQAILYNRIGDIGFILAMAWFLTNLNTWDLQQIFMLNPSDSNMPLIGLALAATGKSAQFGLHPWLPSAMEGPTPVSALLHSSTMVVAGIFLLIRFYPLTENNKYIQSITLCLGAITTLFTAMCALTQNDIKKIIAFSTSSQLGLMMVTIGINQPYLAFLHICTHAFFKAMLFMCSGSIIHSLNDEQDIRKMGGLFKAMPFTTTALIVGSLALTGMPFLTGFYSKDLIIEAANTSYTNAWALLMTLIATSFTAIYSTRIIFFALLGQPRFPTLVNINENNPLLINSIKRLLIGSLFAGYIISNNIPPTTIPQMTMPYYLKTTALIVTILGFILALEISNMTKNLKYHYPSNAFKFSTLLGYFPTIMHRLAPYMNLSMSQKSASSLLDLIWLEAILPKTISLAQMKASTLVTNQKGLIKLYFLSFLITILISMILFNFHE

Measured: IC50

Sequence of ND2 subunit of NADH:ubiquinone oxidoreductase (complex I) (P03892 whole entry, one chain of several): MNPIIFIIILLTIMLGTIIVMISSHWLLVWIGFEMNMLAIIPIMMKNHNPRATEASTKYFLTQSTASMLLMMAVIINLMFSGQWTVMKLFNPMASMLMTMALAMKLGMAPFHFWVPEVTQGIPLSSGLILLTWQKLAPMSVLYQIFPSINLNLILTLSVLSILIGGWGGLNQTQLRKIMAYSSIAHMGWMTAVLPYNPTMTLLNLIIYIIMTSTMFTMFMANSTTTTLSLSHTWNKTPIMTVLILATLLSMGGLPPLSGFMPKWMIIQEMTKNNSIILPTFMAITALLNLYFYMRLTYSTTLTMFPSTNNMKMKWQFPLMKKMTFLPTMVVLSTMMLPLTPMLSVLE
Sequence of ND1 subunit of NADH:ubiquinone oxidoreductase (complex I) (P03887 whole entry, one chain of several): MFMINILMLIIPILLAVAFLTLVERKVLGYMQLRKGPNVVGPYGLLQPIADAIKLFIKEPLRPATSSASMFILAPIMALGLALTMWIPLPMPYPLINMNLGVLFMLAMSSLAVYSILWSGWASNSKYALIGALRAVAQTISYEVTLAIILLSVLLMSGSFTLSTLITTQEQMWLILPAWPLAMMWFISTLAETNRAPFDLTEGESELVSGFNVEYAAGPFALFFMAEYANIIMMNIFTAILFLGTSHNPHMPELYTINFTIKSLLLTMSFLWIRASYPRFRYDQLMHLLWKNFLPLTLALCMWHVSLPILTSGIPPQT

benzophenone-asimicin [BPA]
~1 nM: all assays above
